For orientation: IC50 means the concentration needed to halve the response being measured.

Here are results for 25 molecules from patent US20090239877A1, “NOVEL 1,2,4-TRIAZOLE DERIVATIVES AND PROCESS OF MANUFACTURING THEREOF” (AETERNA ZENTARIS GmbH, priority 2008, published 2009).

Sequence of human GHS-R 1a (Q92847 whole entry): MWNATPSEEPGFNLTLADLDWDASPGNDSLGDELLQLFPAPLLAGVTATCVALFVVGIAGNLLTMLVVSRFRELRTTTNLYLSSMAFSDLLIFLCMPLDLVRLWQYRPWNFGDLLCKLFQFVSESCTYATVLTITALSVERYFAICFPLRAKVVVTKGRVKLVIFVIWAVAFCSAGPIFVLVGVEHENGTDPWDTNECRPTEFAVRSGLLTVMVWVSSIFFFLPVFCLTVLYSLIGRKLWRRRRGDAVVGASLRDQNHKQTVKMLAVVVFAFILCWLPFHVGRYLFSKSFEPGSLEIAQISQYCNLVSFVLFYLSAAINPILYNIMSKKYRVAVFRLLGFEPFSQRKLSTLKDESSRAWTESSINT

The experiment has as its target human GHS-R 1a (Homo sapiens, UniProt Q92847). Put plainly: GHS-R 1a receptor-ligand binding assay (membrane preparations from transfected LLC PK-1 cells). More on the design: expressed in transfected cells. The settings on record: displacement of 125I-His9-ghrelin; plasma membranes of LLC PK-1 cells transiently transfected with human GHS-R 1a; mean of at least two independent experiments in triplicates. How it is done: II) GHS-R 1a Receptor-Ligand Binding Assay (Membrane Preparations from Transfected LLC PK-1 Cells)
The GHS-R 1a receptor binding/affinity studies were performed according to Guerlavais et al. (J. Med. Chem. 2003, 46: 1191-1203).
Isolated plasma membranes from LLC PK-1 cells, a renal epithelial cell line originally derived from porcine kidneys (ECACC No. 86121112) (10 μg of protein), that were transiently transfected with human GHS-R 1a cDNA (Guerlavais et al., J. Med. Chem. 2003, 46: 1191-1203), were incubated in homogenization buffer HB [50 mM Tris (pH 7.3), 5 mM MgCl2, 2.5 mM EDTA, and 30 μg/mL bacitracin (Sigma)] for 60 min at 25° C. (steady-state conditions) with […] ^125I-His^9-ghrelin (Amersham) in the presence or absence of competing compounds (compounds of the invention).
Nonspecific binding was defined using an excess (10^−6 M) of ghrelin. The binding reaction was stopped by addition of 4 mL of ice-cold HB followed by rapid filtration over Whatman GP/C filters presoaked with 0.5% polyethyleneimine to prevent excessive binding of radioligand to the filters. Filters were rinsed three times with 3 mL of icecold wash buffer [50 mM Tris (pH 7.3), 10 mM MgCl2, 2.5 mM EDTA, and 0.015% (w/v) X-100 Triton], and the radioactivity bound to membranes was measured in a gammacounter (Kontron Analytical Gamma Matic, Automatic gamma counting system).
The concentration of test compounds required to inhibit radiolabelled ghrelin binding by 50% (IC50) was determined by fitting competitive binding curves using non-linear regression (PRISM 3.0, Graph Pad San Diego, USA).
In the following table 2 results obtained for selected compounds of the invention are presented in comparison to an example of the prior art. IC50 values given are the mean of at least two independent experiments performed in triplicates.
(In a radioligand displacement assay an active substance lowers the binding of a labelled ligand.)
For the molecule `O=C(N[C@H](Cc1c[nH]c2ccccc12)c1nnc(Cc2ccccc2)n1Cc1ccc(Cl)c(Cl)c1)c1cnccn1` [Compound 38, N-((R)-1-(4-(3,4-dichlorobenzyl)-5-benzyl-4H-1,2,4-triazol-3-yl)-2-(1H-indol-3-yl)ethyl)pyrazine-2-carboxamide], the IC50 worked out at 430 nM.
In the case of `O=C(Cc1ccccn1)N[C@H](Cc1c[nH]c2ccccc12)c1nnc(CCCc2c[nH]c3ccccc23)n1Cc1cccc2ccccc12` [Compound 40, N-((R)-1-(5-(3-(1H-indol-3-yl)propyl)-4-((naphthalen-1-yl)methyl)-4H-1,2,4-triazol-3-yl)-2-(1H-indol-3-yl)ethyl)-2-(pyridin-2-yl)acetamide], the IC50 was found to be 20.9 nM.
In turn, `O=C(N[C@H](Cc1c[nH]c2ccccc12)c1nnc(CCCc2c[nH]c3ccccc23)n1Cc1cccc2ccccc12)c1ccccn1` [Compound 45, N-((R)-1-(5-(3-(1H-indol-3-yl)propyl)-4-((naphthalen-1-yl)methyl)-4H-1,2,4-triazol-3-yl)-2-(1H-indol-3-yl)ethyl)picolinamide] yielded an IC50 of 29 nM.
`O=C(N[C@H](Cc1c[nH]c2ccccc12)c1nnc(CCCc2c[nH]c3ccccc23)n1Cc1cccc2ccccc12)C1CCOCC1` [Compound 46, N-((R)-1-(5-(3-(1H-indol-3-yl)propyl)-4-((naphthalen-1-yl)methyl)-4H-1,2,4-triazol-3-yl)-2-(1H-indol-3-yl)ethyl)-tetrahydro-2H-pyran-4-carboxamide] gave an IC50 of 143 nM.
The molecule `O=C(Cc1ccccn1)N[C@H](Cc1c[nH]c2ccccc12)c1nnc(CCc2ccccc2)n1Cc1cccc2ccccc12` [Compound 50, N-((R)-2-(1H-indol-3-yl)-1-(4-((naphthalen-1-yl)methyl)-5-phenethyl-4H-1,2,4-triazol-3-yl)ethyl)-2-(pyridin-2-yl)acetamide] registered an IC50 of 107 nM.
In turn, `O=C(N[C@H](Cc1c[nH]c2ccccc12)c1nnc(CCCc2c[nH]c3ccccc23)n1Cc1cccc2ccccc12)c1cnccn1` [Compound 51, N-((R)-1-(5-(3-(1H-indol-3-yl)propyl)-4-((naphthalen-1-yl)methyl)-4H-1,2,4-triazol-3-yl)-2-(1H-indol-3-yl)ethyl)pyrazine-2-carboxamide] displayed an IC50 of 107 nM.
On to `O=C(Cc1ccccn1)N[C@H](Cc1c[nH]c2ccccc12)c1nnc(CCc2c[nH]c3ccccc23)n1Cc1ccc(Cl)c(Cl)c1` [Compound 52, N-((R)-1-(5-(2-(1H-indol-3-yl)ethyl)-4-(3,4-dichlorobenzyl)-4H-1,2,4-triazol-3-yl)-2-(1H-indol-3-yl)ethyl)-2-(pyridin-2-yl)acetamide], for which the IC50 was determined as 48 nM.
The molecule `O=C(N[C@H](Cc1c[nH]c2ccccc12)c1nnc(CCc2c[nH]c3ccccc23)n1Cc1ccc(Cl)c(Cl)c1)C1CCCN1` (stereo partly drawn) [Compound 53, N-((R)-1-(5-(2-(1H-indol-3-yl)ethyl)-4-(3,4-dichlorobenzyl)-4H-1,2,4-triazol-3-yl)-2-(1H-indol-3-yl)ethyl)pyrrolidine-2-carboxamide] returned an IC50 of 158 nM.
As for `COc1ccc(Cn2c(CCc3ccccc3)nnc2[C@@H](Cc2ccc3ccccc3c2)NC(=O)C2CCNCC2)cc1` [Compound 54, N-((R)-1-(4-(4-methoxybenzyl)-5-phenethyl-4H-1,2,4-triazol-3-yl)-2-(naphthalen-2-yl)ethyl)piperidine-4-carboxamide], the IC50 was found to be 0.3 nM.
Consider `COc1ccc(Cn2c(CCc3ccccc3)nnc2[C@@H](Cc2ccc3ccccc3c2)NC(=O)C(C)(C)N)cc1` [Compound 55, N-((R)-1-(4-(4-methoxybenzyl)-5-phenethyl-4H-1,2,4-triazol-3-yl)-2-(naphthalen-2-yl)ethyl)-2-amino-2-methylpropanamide], for which the IC50 worked out at 13.7 nM.
As for `COc1ccc(Cn2c(CCc3ccccc3)nnc2[C@@H](Cc2ccc3ccccc3c2)NC(=O)c2ccccn2)cc1` [Compound 57, N-((R)-1-(4-(4-methoxybenzyl)-5-phenethyl-4H-1,2,4-triazol-3-yl)-2-(naphthalen-2-yl)ethyl)picolinamide], the IC50 was 0.7 nM.
To `COc1ccc(Cn2c(CCc3c[nH]c4ccccc34)nnc2[C@@H](Cc2ccc3ccccc3c2)NC(=O)c2ccccn2)cc1` [Compound 58, N-((R)-1-(5-(2-(1H-indol-3-yl)ethyl)-4-(4-methoxybenzyl)-4H-1,2,4-triazol-3-yl)-2-(naphthalen-2-yl)ethyl)picolinamide] belongs 1 nM; to `COc1ccc(Cn2c(CCc3ccccc3)nnc2[C@@H](Cc2ccc3ccccc3c2)NC(=O)C2CCCN2)cc1` (stereo partly drawn) [Compound 59, N-((R)-1-(4-(4-methoxybenzyl)-5-phenethyl-4H-1,2,4-triazol-3-yl)-2-(naphthalen-2-yl)ethyl)pyrrolidine-2-carboxamide], 27.8 nM.
For `O=C(N[C@H](Cc1c[nH]c2ccccc12)c1nnc(CCc2ccccc2)n1CCc1ccccc1)C1CCCCC1` [Compound 62, N-((R)-2-(1H-indol-3-yl)-1-(4,5-diphenethyl-4H-1,2,4-triazol-3-yl)ethyl)cyclohexane-carboxamide] the value was 707 nM; for `O=C(N[C@H](Cc1c[nH]c2ccccc12)c1nnc(CCc2ccccc2)n1CCc1ccccc1)c1ccccc1` [Compound 63, N-((R)-2-(1H-indol-3-yl)-1-(4,5-diphenethyl-4H-1,2,4-triazol-3-yl)ethyl)benzamide], 535 nM; for `O=C(N[C@H](Cc1c[nH]c2ccccc12)c1nnc(CCc2ccccc2)n1CCc1ccccc1)c1ccccn1` [Compound 64, N-((R)-2-(1H-indol-3-yl)-1-(4,5-diphenethyl-4H-1,2,4-triazol-3-yl)ethyl)picolinamide], 198 nM.
As to `O=C(N[C@H](Cc1c[nH]c2ccccc12)c1nnc(CCc2ccccc2)n1CCc1ccccc1)c1cnccn1` [Compound 66, N-((R)-2-(1H-indol-3-yl)-1-(4,5-diphenethyl-4H-1,2,4-triazol-3-yl)ethyl)pyrazine-2-carboxamide], the IC50 worked out at 825 nM.
On to `NCCCC(=O)N[C@H](Cc1c[nH]c2ccccc12)c1nnc(CCc2c[nH]c3ccccc23)n1Cc1cccc2ccccc12` [Compound 67, N-((R)-1-(5-(2-(1H-indol-3-yl)ethyl)-4-((naphthalen-1-yl)methyl)-4H-1,2,4-triazol-3-yl)-2-(1H-indol-3-yl)ethyl)-4-aminobutanamide], for which the IC50 is 0.27 nM.
Molecule `NCCCC(=O)N[C@H](Cc1c[nH]c2ccccc12)c1nnc(CCc2ccccc2)n1Cc1cccc2ccccc12` [Compound 68, N-((R)-2-(1H-indol-3-yl)-1-(4-((naphthalen-1-yl)methyl)-5-phenethyl-4H-1,2,4-triazol-3-yl)ethyl)-4-aminobutanamide] showed an IC50 of 182 nM.
To `NCCCC(=O)N[C@H](Cc1c[nH]c2ccccc12)c1nnc(CCCc2c[nH]c3ccccc23)n1Cc1cccc2ccccc12` [Compound 69, N-((R)-1-(5-(3-(1H-indol-3-yl)propyl)-4-((naphthalen-1-yl)methyl)-4H-1,2,4-triazol-3-yl)-2-(1H-indol-3-yl)ethyl)-4-aminobutanamide] belongs 126 nM.
In turn, `O=C(N[C@H](Cc1c[nH]c2ccccc12)c1nnc(CCc2ccccc2)n1CCc1ccccc1)C1CCNCC1` [Compound 71, N-((R)-2-(1H-indol-3-yl)-1-(4,5-diphenethyl-4H-1,2,4-triazol-3-yl)ethyl)piperidine-4-carboxamide] returned an IC50 of 92 nM. The IC50 values of the last two molecules are within 1.5-fold of each other.
In turn, `CC(C)(N)C(=O)N[C@H](Cc1c[nH]c2ccccc12)c1nnc(CCc2ccccc2)n1Cc1ccc(-c2ccccc2)cc1` [Compound 73, 2-amino-N-((R)-1-(4-(4-phenylbenzyl)-5-phenethyl-4H-1,2,4-triazol-3-yl)-2-(1H-indol-3-yl)ethyl)-2-methylpropanamide] displayed an IC50 of 150 nM.
To `O=C(N[C@H](Cc1c[nH]c2ccccc12)c1nnc(CCc2ccccc2)n1Cc1ccc(-c2ccccc2)cc1)C1CCNCC1` [Compound 74, N-((R)-1-(4-(4-phenylbenzyl)-5-phenethyl-4H-1,2,4-triazol-3-yl)-2-(1H-indol-3-yl)ethyl)piperidine-4-carboxamide] belongs 95 nM; to `COc1ccc(Cn2c(CCc3ccccc3)nnc2[C@@H](Cc2cccc3ccccc23)NC(=O)C(C)(C)N)cc1` [Compound 77, N-((R)-1-(4-(4-methoxybenzyl)-5-phenethyl-4H-1,2,4-triazol-3-yl)-2-(naphthalen-1-yl)ethyl)-2-amino-2-methylpropanamide], 12.3 nM; to `COc1ccc(Cn2c(CCc3ccccc3)nnc2[C@@H](Cc2cccc3ccccc23)NC(=O)C2CCNCC2)cc1` [Compound 78, N-((R)-1-(4-(4-methoxybenzyl)-5-phenethyl-4H-1,2,4-triazol-3-yl)-2-(naphthalen-1-yl)ethyl)piperidine-4-carboxamide], 2.2 nM.
